Test results published in PubChem BioAssay (NCI).
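How tested: cells in 96-well plates exposed to compound for 48 hours at five concentrations. TGI denotes the concentration required for complete inhibition of growth.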

How the values were obtained:
Assay in all cases: DTP human tumour cell line panel, 48 h
RXF-631 renal = system: RXF-631 renal
DLD-1 colon = system: DLD-1 colon
DMS 114 small cell lung = system: DMS 114 small cell lung
A549 NSCLC = system: A549 NSCLC
LXFL 529 NSCLC = system: LXFL 529 NSCLC
NCI-H460 lung = system: NCI-H460 lung
RPMI-8226 leukemia = system: RPMI-8226 leukemia
RXF 393 renal = system: RXF 393 renal
786-0 renal = system: 786-0 renal
LOX IMVI melanoma = system: LOX IMVI melanoma
MALME-3M melanoma = system: MALME-3M melanoma
OVCAR-8 ovarian = system: OVCAR-8 ovarian
M14 melanoma = system: M14 melanoma
SK-MEL-2 melanoma = system: SK-MEL-2 melanoma
TK-10 renal = system: TK-10 renal
SN12C renal = system: SN12C renal
OVCAR-3 ovarian = system: OVCAR-3 ovarian
SF-295 CNS = system: SF-295 CNS
CAKI-1 renal = system: CAKI-1 renal
HOP-92 NSCLC = system: HOP-92 NSCLC
SF-268 CNS = system: SF-268 CNS
IGROV1 ovarian = system: IGROV1 ovarian
K-562 leukemia = system: K-562 leukemia
SK-OV-3 ovarian = system: SK-OV-3 ovarian
HCT-116 colon = system: HCT-116 colon
OVCAR-4 ovarian = system: OVCAR-4 ovarian
XF 498 CNS = system: XF 498 CNS
SNB-75 CNS = system: SNB-75 CNS
HCT-15 colon = system: HCT-15 colon
NCI-H226 lung = system: NCI-H226 lung
COLO 205 colon = system: COLO 205 colon
SK-MEL-5 melanoma = system: SK-MEL-5 melanoma
DMS 273 small cell lung = system: DMS 273 small cell lung
CCRF-CEM leukemia = system: CCRF-CEM leukemia
A498 renal = system: A498 renal
HOP-62 NSCLC = system: HOP-62 NSCLC
UO-31 renal = system: UO-31 renal
UACC-257 melanoma = system: UACC-257 melanoma
U251 CNS = system: U251 CNS
ACHN renal = system: ACHN renal
NCI-H522 lung = system: NCI-H522 lung
KM20L2 colon = system: KM20L2 colon
OVCAR-5 ovarian = system: OVCAR-5 ovarian
SR leukemia = system: SR leukemia
SNB-19 CNS = system: SNB-19 CNS
EKVX NSCLC = system: EKVX NSCLC
MOLT-4 leukemia = system: MOLT-4 leukemia
HL-60(TB) leukemia = system: HL-60(TB) leukemia
SK-MEL-28 melanoma = system: SK-MEL-28 melanoma
KM12 colon = system: KM12 colon
UACC-62 melanoma = system: UACC-62 melanoma
NCI-H23 lung = system: NCI-H23 lung
HCC-2998 colon = system: HCC-2998 colon
SW-620 colon = system: SW-620 colon
SF-539 CNS = system: SF-539 CNS
HOP-18 NSCLC = system: HOP-18 NSCLC
HT29 colon = system: HT29 colon
SNB-78 CNS = system: SNB-78 CNS

Measured: TGI

C=CCN=C1N=C(C)C(C(=O)OCC)S1 (stereo not drawn)
> 100 µM: all assays above
